{"source": "patent US8911798B2", "about": "“Multivitamin and mineral compositions for individuals having renal disease” (priority 2007, dated 2014)", "key": {"[1]": {"assay": "Cholecalciferol dosing, calciuria and hypercalcemia in renal patients", "type": "in vivo, human", "text": "The inventor has discovered that these therapeutic approaches are obsolete today because of the risk of prolonged hypercalcemia resulting from the long half-life of 25-(OH)-D3 in renal patients. […] Likewise, the inventor has discovered that repletion of vitamin D to achieve a plasma 25-(OH)-D concentration in the 80th percentile or higher of normal clinical values prevents renal osteodystrophy, Looser zones, and sub-periosteal resorption, despite the persistence of hypocalcemia, hyperphosphatemia and metabolic acidosis, or the use of calcium-aluminum free phosphate binders such as sevelamer salts. Therefore, a composition of the invention comprises 375 to 425 IU of vitamin D and a preferred embodiment of a composition of the invention provides 400 IU of vitamin D."}, "[2]": {"settings": "cited from earlier work"}, "[3]": {"settings": "daily doses higher than 1 mg/day; cited from earlier work"}, "[4]": {"settings": "in vivo; cited from earlier work"}, "[5]": {"settings": "400 μg/L in dialysate, 6 months; cited from earlier work"}, "[6]": {"settings": "zinc supplementation, dialysis patients; cited from earlier work"}, "[7]": {"settings": "daily oral 25 mg elemental zinc, 6 months; from 81±8 mcg/dL; normal controls 111±10 μg/dL; p<0.005; cited from earlier work"}, "[8]": {"settings": "cited from earlier work", "remark": "listed apart in the source"}, "[9]": {"settings": "43 maintenance hemodialysis patients, low flux/low efficiency dialyzers; 200 mg post-dialysis 2-3 times per week (400-600 mg weekly) orally; cited from earlier work"}, "[10]": {"settings": "up to 200 mg/day; cited from earlier work"}, "[11]": {"settings": "blood flow of 200-300 mL/min; cited from earlier work"}, "[12]": {"settings": "single oral dose of 1200 IU; cited from earlier work"}, "[13]": {"settings": "15 days of treatment with 300 mg/day; hemodialysis patients; cited from earlier work"}, "[14]": {"assay": "Daily vitamin K over several years in the general population", "type": "in vivo, human", "settings": "1 mg dose each day over several years", "text": "The inventor has discovered that the 10 mcg dose of vitamin K that is provided in conventional multivitamin preparations is too low. […] A composition of their invention comprises vitamin K in doses that are appropriate for subjects with renal disease and provides 25 to 1000 mcg of vitamin K, and a preferred embodiment of a composition of the invention provides 50 mcg of vitamin K."}}, "data": [{"compound": "C=C1CC[C@H](O)C/C1=C/C=C1\\CCC[C@]2(C)[C@@H]([C@H](C)CCCC(C)C)CC[C@@H]12", "note": "[cholecalciferol]", "values": [{"measurement": "calciuria and hypercalcemia", "setting": "[1]; dose of 800 IU or 20 mcg, pre-dialysis patients", "result": "does not cause an increase in calciuria in pre-dialysis patients nor hypercalcemia"}, {"measurement": "calciuria and hypercalcemia", "setting": "[1]; doses in excess of 2400 IU or 60 mcg/day", "result": "these complications are seen"}]}, {"compound": "[Se]", "note": "[selenium]", "values": [{"measurement": "APACHE III score versus untreated group", "setting": "[2]; SIRS patients", "result": "significantly lower"}, {"measurement": "time to normalization of serum selenium levels and GSH-Px activity", "setting": "[2]; Se treated SIRS patients", "result": "≤ 3", "unit": "days"}, {"measurement": "overall mortality", "setting": "[2]; Se+ group, 52% in the Se− group", "result": 33.5, "unit": "%"}]}, {"compound": "Nc1nc2ncc(CNc3ccc(C(=O)N[C@@H](CCC(=O)O)C(=O)O)cc3)nc2c(=O)[nH]1", "note": "[Folic acid]", "values": [{"measurement": "renal patients in whom plasma homocysteine levels are lowered", "setting": "[3]", "result": "up to 30%"}]}, {"compound": "[Zn]", "note": "[zinc]", "values": [{"measurement": "plasma level at which zinc toxicity is seen", "setting": "[4]", "result": "around 700 mcg/dL"}, {"measurement": "intracellular content of ATP in lymphocytes", "setting": "[5]", "result": "increased intracellular content of ATP in lymphocytes"}, {"measurement": "serum zinc level", "setting": "[5]", "result": "significant increase in serum zinc level"}, {"measurement": "patients with plasma testosterone levels increased into the normal range", "setting": "[6]", "result": 50, "unit": "%"}, {"measurement": "plasma Zn levels after treatment", "setting": "[7]", "result": "110 ± 14", "unit": "µg/dL"}]}, {"compound": "Fe(III) hydroxide sucrose complex", "values": [{"measurement": "hemodialysis patients with bleomycin-detectable free iron in the circulation", "setting": "[8]; 100 mg intravenously", "result": "8 of the 10"}, {"measurement": "plasma total peroxide and malondialdehyde concentrations", "setting": "[8]; within ten minutes following infusion of 100 mg", "result": "rise in plasma total peroxide and malondialdehyde concentrations"}]}, {"compound": "O=C1O[C@H]([C@@H](O)CO)C(O)=C1O", "note": "[vitamin C, ascorbic acid]", "values": [{"measurement": "patients with decreased plasma vitamin C levels / serum levels not maintained despite supplement", "setting": "[9]", "result": 27, "unit": "%"}, {"measurement": "bioavailability", "setting": "[10]", "result": "~100", "unit": "%"}, {"measurement": "clearance of vitamin C (ascorbate) during hemodialysis", "setting": "[11]", "result": "about 100 mL/min"}]}, {"compound": "vitamin E", "values": [{"measurement": "oxidative stress induced by intravenous iron", "setting": "[12]", "result": "effective in attenuating the oxidative stress"}, {"measurement": "platelet vitamin E levels", "setting": "[13]", "result": "increased to the normal range"}]}, {"compound": "vitamin K", "values": [{"measurement": "untoward effects", "setting": "[14]", "result": "no untoward effects"}]}]}
